Experimental data: patent publication US11224633B2, “Kit for treating sepsis and/or any systemic (SIRS) or damaging cellular hyperinflammation” (priority 2015, dated 2022)

Legend:
[1] = system: male IOPS Han Ico Wistar rats, septic shock by LPS Salmonella typhimurium
[2] = in vivo; cited from earlier work
[3] = venous blood at euthanasia H 6h30, individual rats, selenite alone = group 2 perfusion
[4] = venous blood gases at euthanasia H 6h30, individual rats, selenite alone = group 2 perfusion

## O=[Se](O)O [sodium selenite]
[1]; blood at euthanasia H 6h30, individual rats, selenite alone = group 2 perfusion
  ScvO2 or SaO2: 8.9
[1]; creatinine at H 6h30, individual rats, selenite alone = group 2 perfusion
  Creat: 156
[1]; glycemia at H 6h30, individual rats, selenite alone = group 2 perfusion
  Gly: 0.27
[1]; group 4: control B2 then Na2SeO3 alone in 3 flash injections every 10 min, LPS 50 mg/kg
  survival of animals: do not survive
[1]; individual rats, LPS 50 mg/kg, sample at H 6h30, selenite alone = group 2, 0.3 mg/kg Se perfused over 30 min, Sel-P over 30 min, combination = Sel-P then 3 flash injections of selenite 0.1 mg/kg
  Lactate level: 8.75 mmol/L
[1]; [3]
  CO3H—: 19.6
  Venous lactate: 8.75 mmol/L
[1]; [4]
  PCO2: 97 mmHg
  PaO2: 16 mmHg
  pH: 6.906

## [Se] [selenium]
[2]
  NOAEL No Adverse Effect Level determined in nutrition, per kg: 11 μg/kg per day
